From ChEMBL document CHEMBL2040787, “Synthesis and carbonic anhydrase inhibitory properties of novel bromophenols and their derivatives including natural products: vidalol B” (Eur J Med Chem, 2012)

Experiments:
Carbonic anhydrase 6 = Carbonic anhydrase 6 (Homo sapiens, UniProt P23280); test: Inhibition of human CA6 using 4NPA as substrate for 3 mins by Lineweaver burk plot analysis
Carbonic anhydrase 4 = Carbonic anhydrase 4 (Homo sapiens, UniProt P22748); test: Inhibition of human CA4 using 4NPA as substrate for 3 mins by Lineweaver burk plot analysis
Carbonic anhydrase 2 = Carbonic anhydrase 2 (Homo sapiens, UniProt P00918); test: Inhibition of human CA2 using 4NPA as substrate for 3 mins by Lineweaver burk plot analysis
Carbonic anhydrase 1 = Carbonic anhydrase 1 (Homo sapiens, UniProt P00915); test: Noncompetitive inhibition of human CA1 using 4NPA as substrate for 3 mins by Lineweaver burk plot analysis
Carbonic anhydrase 1, sequence (P00915 whole entry): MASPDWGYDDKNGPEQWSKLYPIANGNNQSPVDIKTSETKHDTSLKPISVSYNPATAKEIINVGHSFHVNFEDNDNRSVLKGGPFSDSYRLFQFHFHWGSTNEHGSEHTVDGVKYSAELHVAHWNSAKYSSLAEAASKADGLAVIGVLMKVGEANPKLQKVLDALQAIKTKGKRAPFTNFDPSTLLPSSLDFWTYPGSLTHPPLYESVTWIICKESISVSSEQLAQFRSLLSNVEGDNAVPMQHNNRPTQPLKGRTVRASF

Carbonic anhydrase 6, sequence (P23280 whole entry): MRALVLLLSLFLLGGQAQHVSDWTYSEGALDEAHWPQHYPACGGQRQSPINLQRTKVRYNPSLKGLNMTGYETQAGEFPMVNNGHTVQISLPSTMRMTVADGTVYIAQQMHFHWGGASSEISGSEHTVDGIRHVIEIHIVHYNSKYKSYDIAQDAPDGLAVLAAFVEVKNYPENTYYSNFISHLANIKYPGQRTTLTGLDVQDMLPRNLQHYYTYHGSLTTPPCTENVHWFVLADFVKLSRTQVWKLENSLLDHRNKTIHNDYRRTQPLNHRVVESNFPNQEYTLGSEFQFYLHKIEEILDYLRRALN
Carbonic anhydrase 4, sequence (P22748 whole entry): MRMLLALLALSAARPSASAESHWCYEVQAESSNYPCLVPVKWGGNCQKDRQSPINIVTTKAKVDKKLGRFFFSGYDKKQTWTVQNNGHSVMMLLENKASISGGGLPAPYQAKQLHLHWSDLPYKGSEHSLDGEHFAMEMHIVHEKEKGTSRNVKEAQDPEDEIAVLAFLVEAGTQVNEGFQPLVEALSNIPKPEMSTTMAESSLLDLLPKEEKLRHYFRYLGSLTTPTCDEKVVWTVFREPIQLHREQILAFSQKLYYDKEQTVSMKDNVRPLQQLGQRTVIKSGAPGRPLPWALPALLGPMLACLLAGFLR

What does the source list for `COc1ccc(C(=O)O)cc1OC` [VERATRIC ACID]?
Ki (Carbonic anhydrase 6): 24.4 µM; Ki (Carbonic anhydrase 4): 6.48 µM

`Oc1ccc(Cc2ccc(O)c(O)c2)cc1O` was tested. Which Ki (Carbonic anhydrase 6) did it give?
The Ki was 13.7 µM.

What about the Ki (Carbonic anhydrase 4) of the same molecule?
Its Ki is 7.64 µM.

And the Ki (Carbonic anhydrase 2)?
Its Ki is 5.64 µM.

And the Ki (Carbonic anhydrase 1)?
The Ki was 18.4 µM.

`O=C(O)c1ccc(O)c(O)c1` [PROTOCATECHUIC ACID] was tested. Which Ki (Carbonic anhydrase 4) did it give?
The Ki was 2.45 µM.

Which Ki (Carbonic anhydrase 6) does the source give for `COc1c(Br)c(Br)c(Cc2c(Br)c(Br)c(OC)c(OC)c2Br)c(Br)c1OC` here?
The Ki was 29.7 µM.

What about the Ki (Carbonic anhydrase 4) of the same molecule?
Its Ki is 32.7 µM.

And the Ki (Carbonic anhydrase 2)?
The Ki was 35.5 µM.

What about the Ki (Carbonic anhydrase 1) of the same molecule?
Its Ki is 43.5 µM.

How did the Ki (Carbonic anhydrase 6) turn out when `COc1ccc(Cc2ccc(OC)c(OC)c2)cc1OC` was run?
The Ki was 382 µM.

What about the Ki (Carbonic anhydrase 4) of the same molecule?
Its Ki is 145 µM.

And the Ki (Carbonic anhydrase 2)?
Its Ki is 59.1 µM.

What about the Ki (Carbonic anhydrase 1) of the same molecule?
The Ki was 537 µM.

How did the Ki (Carbonic anhydrase 6) turn out when `COc1ccccc1` [ANISOLE] was run?
The Ki was 235 µM.
